# Assay results from patent publication US4873253A, “Phenylalanine derivative and proteinase inhibitor” (Okamoto; Shosuke, priority 1987, dated 1989).
# Where a name gives a salt, the structure may show the parent alone. Read-outs that look alike come from different tables or passages of the source.
# Key:
# human plasmin [1] = target: T1, human plasmin (Homo sapiens, UniProt P00747); assay: Antiplasmin activity: inhibition of S-2251 decomposition; format: biochemical; settings: Table 2; substrate S-2251, pH 7.4, 37° C.
# Method: An inhibitor sample is dissolved in a 0.05 M Tris-hydrochloric acid buffer solution (pH=7.4) to make the total volume to 400 μl. […] Then, 50 μl of a 0.2 casein unit/ml human plasmin is added and the mixture is incubated at a temperature of 37° C. for 4 minutes. Thereafter, the reaction is stopped by adding 50 μl of 50% acetic acid.
# Thus, the concentration I50 (μmol) of the inhibitor sample, at which the absorbance is one half (i.e., 1/2) of that obtained in the absence of the inhibitor, is determined.
# human plasmin [2] = target: T1, human plasmin; assay: Antiplasmin activity: inhibition of fibrin decomposition; format: biochemical; settings: Table 2, pH 7.4, 37° C., read-out: Plasmin Fibrin I50 (concentration doubling fibrin dissolution time)
# Method: (i) Determination of inhibition activity for fibrin decomposition
# An inhibitor sample is dissolved in a 0.18 M borate-physiological salt buffer solution (pH=7.4) to make the total volume to 600 μl. To this buffer solution, 200 μl of a 0.2% bovine fibrinogen, 100 μl of a 0.3 casein unit/ml human plasmin solution, and 100 μl of a 50 unit/ml bovine thrombin solution, all dissolved in the above-mentioned buffer, are added at a temperature of 37° C. in a constant temperature bath. Then, the dissolution time of the fibrin mass formed above is determined.
# bovine thrombin = target: T2, bovine thrombin (Bos taurus, UniProt P00735); assay: Antithrombin activity: inhibition of fibrin formation (fibrinogen); format: biochemical
# T2 construct: a 0.2 unit/ml bovine thrombin solution
# Method: (i) Determination of inhibition activity against fibrin formation
# An inhibitor sample is dissolved in a 0.18 M borate-physiological salt buffer solution (pH= 7.4) to make the total volume to 500 μl. […] Thus, a coagulation time is determined. The inhibitor concentration I50 (μmol), at which the coagulation time obtained in the absence of the inhibitor is extended twice, is determined.
# bovine trypsin = target: T3, bovine trypsin (Bos taurus, UniProt P00760); assay: Antitrypsin activity: inhibition of S-2238 decomposition; format: biochemical; settings: Table 2; substrate S-2238, pH 8.1, 37° C.; read-out: Trypsin S-2238 I50
# T3 sequence (P00760 24-246): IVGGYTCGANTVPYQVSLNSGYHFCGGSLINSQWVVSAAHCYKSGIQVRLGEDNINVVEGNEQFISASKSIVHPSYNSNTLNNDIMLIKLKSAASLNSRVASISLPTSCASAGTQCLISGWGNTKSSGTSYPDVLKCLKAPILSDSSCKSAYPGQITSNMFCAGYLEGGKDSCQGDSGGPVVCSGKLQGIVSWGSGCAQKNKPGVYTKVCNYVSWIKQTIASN
# Method: Determination of inhibition activity against S-2238 decomposition
# An inhibitor sample is dissolved in a 0.05 M Tris-imidazole buffer solution (pH=8.1) and 125 μl of a 1 mM S-2238 solution is added to make the total volume to 1.20 ml. The mixture is incubated at a temperature of 37° C. for 5 minutes in a constant temperature bath. To this mixture, 0.05 ml of bovine trypsin is added and the absorbance, at 405 nm, of the p-nitroaniline formed per minute is determined at a temperature of 37° C. by using the so-called initial velocity method. Thus, the concentration I50 (μmol) of a inhibitor sample, at which the absorbance is one half (i.e., 1/2) of that obtained in the absence of the inhibitor sample, is determined.
# human plasma kallikrein = human plasma kallikrein (Homo sapiens, UniProt P03952); assay: Anti-plasma kallikrein activity: inhibition of S-2302 decomposition; format: biochemical; settings: Table 2; substrate S-2302, pH 7.8, 37° C.; read-out: Plasma Kallikrein S-2302 I50
# Method: Determination of inhibition activity for S-2302 decomposition
# (§1) An inhibitor sample is dissolved in a 0.05 M Tris-hydrochloric acid buffer solution (pH=7.8) to make the total volume to 400 μl. To this solution, 50 μl of a 2 mM S-2302 solution is added and the mixture is incubated at a temperature of 37° C. for 5 minutes in a constant temperature bath. Then, 50 μl of a 0.12 unit/ml human plasma kallikrein is added and the mixture is incubated at a temperature of 37° C. for 5 minutes. Thereafter, 50 μl of 50% acetic acid is added to terminate the reaction. The absorbance of the p-nitroaniline formed in the reaction mixture is measured at 405 nm. Thus, the concentration I50 (μmol) of the inhibitor sample, at which the absorbance is one half (i.e., 1/2) of that obtained in the absence of the inhibitor sample, is determined.
# human urokinase = human urokinase (Homo sapiens, UniProt P00749); assay: biochemical; settings: Table 2; substrate S-2444, pH 8.8, 37° C.; read-out: Urokinase S-2444 I50
# Method: Determination of inhibition activity for S-2444 decomposition
# as §1, with “solution (pH=8.8)” for “solution (pH=7.8)”, “a 1” for “a 2”, “mM S-2444” for “mM S-2302”, “a 500” for “a 0.12”, “human urokinase” for “human plasma kallikrein”
# [3] = Table 2, bovine fibrinogen, pH 7.4, 37° C., read-out: Thrombin Fibrinogen I50 (concentration doubling coagulation time)
# Chain of human plasma kallikrein (P03952 391-638 limits assumed): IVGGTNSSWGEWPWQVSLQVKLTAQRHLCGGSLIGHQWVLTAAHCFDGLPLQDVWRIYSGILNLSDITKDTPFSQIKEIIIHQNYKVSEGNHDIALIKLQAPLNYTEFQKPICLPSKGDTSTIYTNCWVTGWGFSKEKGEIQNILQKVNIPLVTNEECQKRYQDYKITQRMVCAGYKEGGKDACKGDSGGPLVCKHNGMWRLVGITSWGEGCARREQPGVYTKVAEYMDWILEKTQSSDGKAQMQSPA
# Chain of human plasma kallikrein (P03952 20-390 limits assumed): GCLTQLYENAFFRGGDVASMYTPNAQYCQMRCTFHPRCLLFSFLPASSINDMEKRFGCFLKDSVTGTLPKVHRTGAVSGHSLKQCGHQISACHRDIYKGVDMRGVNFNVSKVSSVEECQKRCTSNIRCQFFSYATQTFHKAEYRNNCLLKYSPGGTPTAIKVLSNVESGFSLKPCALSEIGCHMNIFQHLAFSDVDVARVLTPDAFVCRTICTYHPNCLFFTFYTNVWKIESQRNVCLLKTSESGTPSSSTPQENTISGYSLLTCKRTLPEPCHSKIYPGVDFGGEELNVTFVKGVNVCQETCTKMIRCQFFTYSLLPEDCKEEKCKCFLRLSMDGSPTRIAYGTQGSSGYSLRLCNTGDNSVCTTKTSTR
# T1 sequence (P00747 581-810 limits assumed): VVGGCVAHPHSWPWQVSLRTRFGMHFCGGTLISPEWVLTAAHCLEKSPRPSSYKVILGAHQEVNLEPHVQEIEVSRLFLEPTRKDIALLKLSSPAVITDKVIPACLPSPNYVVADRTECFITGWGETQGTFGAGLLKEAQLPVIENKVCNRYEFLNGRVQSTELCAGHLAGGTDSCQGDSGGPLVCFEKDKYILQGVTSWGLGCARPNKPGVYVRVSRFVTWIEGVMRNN
# T1 sequence (P00747 97-580 limits assumed): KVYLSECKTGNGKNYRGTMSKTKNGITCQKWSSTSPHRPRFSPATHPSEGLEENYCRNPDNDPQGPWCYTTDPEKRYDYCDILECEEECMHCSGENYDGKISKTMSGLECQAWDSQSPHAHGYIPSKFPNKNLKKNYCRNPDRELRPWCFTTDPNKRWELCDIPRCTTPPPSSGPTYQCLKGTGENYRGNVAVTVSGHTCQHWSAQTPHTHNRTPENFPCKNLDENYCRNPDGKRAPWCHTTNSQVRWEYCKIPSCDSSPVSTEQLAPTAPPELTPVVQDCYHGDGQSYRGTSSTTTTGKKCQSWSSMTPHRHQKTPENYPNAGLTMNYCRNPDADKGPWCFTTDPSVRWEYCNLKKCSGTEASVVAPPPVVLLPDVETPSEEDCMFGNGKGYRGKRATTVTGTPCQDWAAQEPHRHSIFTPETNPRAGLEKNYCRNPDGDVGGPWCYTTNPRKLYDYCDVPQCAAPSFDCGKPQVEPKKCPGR
SMILES,IC50 (human plasmin [1]),IC50 (human plasmin [2]),IC50 (bovine thrombin; [3]),IC50 (bovine trypsin),IC50 (human plasma kallikrein),IC50 (human urokinase),IC50 (bovine thrombin)
"NC[C@H]1CC[C@H](C(=O)NC(Cc2cccc(C(F)(F)F)c2)C(=O)N2CCOCC2)CC1 (mixture of isomers) [Compound 29, N-(trans-4-aminomethylcyclohexylcarbonyl)-3-trifluoromethyl-DL-phenylalanine morpholinoamide hydrochloride]",> 1000 µM,> 1000 µM,–,> 150 µM,> 1000 µM,> 1000 µM,> 1000 µM
"CCOC(=O)c1ccccc1NC(=O)C(Cc1cccc(Oc2ccccc2)c1)NC(=O)[C@H]1CC[C@H](CN)CC1 (mixture of isomers) [Compound 4, N-(trans-4-aminomethylcyclohexylcarbonyl)-3-phenoxy-DL-phenylalanine 2-ethoxycarbonylanilide hydrochloride]",> 100 µM,–,–,> 150 µM,> 100 µM,> 200 µM,> 50 µM
"NC[C@H]1CC[C@H](C(=O)NC(Cc2cccc(Oc3ccccc3)c2)C(=O)Nc2ccncn2)CC1 (mixture of isomers) [Compound 12, N-(trans-4-aminomethylcyclohexylcarbonyl)-3-phenoxy-DL-phenylalanine 4-pyrimidylamide dihydrochloride]",1000 µM,130 µM,> 1000 µM,> 150 µM,55 µM,> 1000 µM,–
"NC[C@H]1CC[C@H](C(=O)NC(Cc2cccc(OCc3ccccc3)c2)C(=O)Nc2cccnc2)CC1 (mixture of isomers) [Compound 22, N-(trans-4-aminomethylcyclohexylcarbonyl)-3-benzyloxy-DL-phenylalanine 3-pyridylamide dihydrochloride]",> 1000 µM,> 500 µM,> 500 µM,> 150 µM,> 500 µM,–,–
"COCCCNC(=O)C(Cc1cccc(Oc2ccc(Br)cn2)c1)NC(=O)[C@H]1CC[C@H](CN)CC1 (mixture of isomers) [Compound 25, N-(trans-4-aminomethylcyclohexylcarbonyl)-3-(5-bromo-2-pyridyloxy)-DL-phenylalanine 3-methoxypropylamide hydrochloride]",490 µM,450 µM,> 1000 µM,> 150 µM,500 µM,> 1000 µM,–
"CC(=O)c1ccc(NC(=O)C(Cc2cccc(Oc3ccccc3)c2)NC(=O)[C@H]2CC[C@H](CNC(=N)N)CC2)cc1 (mixture of isomers) [Compound 30, N-(trans-4-guanidinomethylcyclohexylcarbonyl)-3-phenoxy-DL-phenylalanine 4-acetylanilide methane sulfonate]",> 20 µM,> 50 µM,–,> 150 µM,> 10 µM,–,–
"CCOC(=O)C1CCN(C(=O)C(Cc2cccc(Oc3ccccc3)c2)NC(=O)c2ccc(NC(=N)N)cc2)CC1 (racemic) [Compound 34, N-(4-guanidinobenzoyl)-3-phenoxy-DL-phenylalanine 4-ethoxycarbonyl piperidinoamide methane sulfonate]",–,–,> 50 µM,> 150 µM,270 µM,> 200 µM,–
NC[C@H]1CC[C@H](C(=O)NC(Cc2cccc(Oc3ccccc3)c2)C(=O)Nc2nnn[nH]2)CC1 (stereo partly drawn) [Compound 13],–,–,> 100 µM,> 150 µM,> 200 µM,> 200 µM,–

# Further lines, results first:
IC50 (human plasmin [1]),IC50 (human plasmin [2]),IC50 (bovine thrombin; [3]),IC50 (bovine trypsin),IC50 (human plasma kallikrein),IC50 (human urokinase),IC50 (bovine thrombin),SMILES
22 µM,12 µM,> 100 µM,2.5 µM,8.7 µM,38 µM,–,"N=C(N)c1ccc(NC(=O)C(Cc2cccc(Oc3ccccc3)c2)NC(=O)[C@H]2CC[C@H](CN)CC2)cc1 (mixture of isomers) [Compound 5, N-(trans-4-aminomethylcyclohexylcarbonyl)-3-phenoxy-DL-phenylalanine-4-amidinoanilide dihydrochloride]"
–,–,> 125 µM,> 150 µM,> 250 µM,> 250 µM,–,"NC[C@H]1CC[C@H](C(=O)NC(Cc2cccc(Oc3ccccc3)c2)C(=O)Nc2ncccc2C(=O)O)CC1 (mixture of isomers) [Compound 10, N-(trans-4-aminomethylcyclohexylcarbonyl)-3-phenoxy-DL-phenylalanine 2-nicotinylamide dihydrobromide]"
940 µM,340 µM,> 500 µM,100 µM,340 µM,> 500 µM,–,"COCCCNC(=O)C(Cc1cccc(Oc2ccccc2)c1)NC(=O)[C@H]1CC[C@H](CN)CC1 (mixture of isomers) [Compound 14, N-(trans-4-amnomethylcyclohexylcarboonyl)-3-phenoxy-DL-phenylalanine 3-methoxypropylamide hydrochloride]"
320 µM,150 µM,–,> 150 µM,> 400 µM,> 1000 µM,> 200 µM,"NC[C@H]1CC[C@H](C(=O)NC(Cc2cccc(Oc3ccccc3)c2)C(N)=O)CC1 (mixture of isomers) [Compound 21, N-(trans-4-aminomethylcyclohexylcarbonyl)-3-phenoxy-DL-phenylalanine amide hydrochloride]"
> 500 µM,> 200 µM,–,240 µM,> 500 µM,–,–,"N=C(N)Nc1ccc(C(=O)NC(Cc2cccc(Oc3ccccc3)c2)C(=O)N2CCC(C(=O)O)CC2)cc1 (racemic) [Compound 35, N-(4-guanidinobenzoyl)-3-phenoxy-DL-phenylalanine 4-hydroxycarbonyl piperidinoamide methane sulfonate]"
25 µM,> 25 µM,–,17 µM,1.9 µM,–,–,"N=C(N)Nc1ccc(C(=O)NC(Cc2cccc(Oc3ccccc3)c2)C(=O)Nc2ccc(CC(=O)O)cc2)cc1 (racemic) [Compound 36, N-(4-guanidinobenzoyl)-3-phenoxy-DL-phenylalanine 4-hydroxycarbonylmethylanilide hydrochloride]"
–,–,> 1000 µM,15 µM,2 µM,–,–,NC[C@H]1CC[C@H](C(=O)NC(Cc2cccc(Oc3ccccc3)c2)C(=O)Nc2cccnc2)CC1 (stereo partly drawn) [Compound 7]
610 µM,220 µM,–,68 µM,190 µM,> 400 µM,–,NC[C@H]1CC[C@H](C(=O)NC(Cc2cccc(Oc3ccccc3)c2)C(=O)Nc2ncc[nH]2)CC1 (stereo partly drawn) [Compound 11]
